One series deals with MCA205 sarcoma. Kind of series: Tumor growth of established MCA205 sarcoma under anti-CTLA4 (9D9) therapy, with antibiotics, gene-deficient hosts, co-administered mAbs or oral bacteria. The conditions noted are these: for Effect of antibiotic regimen on the antitumor effects of 9D9 Ab against MCA205 sarcomas: SPF mice, antibiotics in drinking water.
The subject of series [1] is small intestine and colon. In words: Histology and histopathological scoring of gut tissue. It counts as in vivo, mice. The conditions noted are these: vancomycin-treated tumor bearers. The method, then: The whole small intestine (duodenum, jejunum and ileum) and the colon were removed, cleaned from feces and fixed in 4% PFA for 1 h. Rehydratation of the tissue was performed in 15% sucrose for 1 h and in 30% sucrose overnight. Small intestines or colons were cut longitudinally, with the resulting ribbons rolled, then embedded in optimum cutting temperature (OCT) compound (Sakura), snap frozen, and longitudinal 6 μm sections were prepared. For histological analysis, longitudinal sections were counterstained with hematoxilin and eosin. For histological quantitative analysis, inflammatory foci, appearance of the submucosa, length of villi, and the thickness of lamina propria were scored for each section by a pathologist.

In series [2] the test system is bacterial families and orders in feces. In words: 454 pyrosequencing of 16S rRNA gene amplicons of feces from tumor bearers.
Protocol: Fecal samples used in this study were collected before or after one injection of anti-CTLA4 (or isotype control) from mice under vancomycin regimen or water, and were kept at −80° C. until further analysis. Library preparation and sequencing were conducted at GATC Biotech AG (Konstanz, Germany).
The next series concerns CD4+CD45RO+ T cells. Kind of series: Recall of human CD4+ T cell responses directed against commensals (IFNγ, IL-10). It counts as cell-based. The method, then:
(§1) All clinical studies were conducted after informed consent of the patients, following the guidelines of the Declaration of Helsinki. Peripheral blood mononuclear cells (PBMC) were provided by Gustave Roussy (Villejuif, France) and by the Department of Radiation Oncology (New York University, New York, N.Y., USA). Patients were included in the following protocols: LUDWIG: MAGE3 protein—based vaccines (25), Meladex vaccine Phase I trial (26), Mel-Ipi-Rx, NCT01557114 (European Union Drug Regulating Authorities clinical trial EudraCT 2010-020317-93) and a pilot study approved by the Kremlin Bicetre Hospital Ethics Committee (n° SC12-018; ID RCB: 2012-A01496-37). Ipilimumab/radiotherapy abscopal effect trials in MM and NSCLC at NYU (Study code: NCT01689974, Study code: NCT0222173). MM patients at baseline were investigated prior to vaccine injections in the Ludwig and Meladex protocols. For memory T cell responses, blood samples were drawn from patients before and after 3 or 4 cycles of ipilimumab. Pyrosequencing analyses of 16S rRNA of gene amplicons in patients feces pre- and post-injections of ipilimumab (V0, V1, V2) were performed according to n° SC12-018; ID RCB: 2012-A01496-37 pilot study endpoints by GATC Biotech AG (Konstanz, Germany).
Assessing CD4^+ T cell memory responses. Murine systems. Bone marrow-derived dendritic cells (BM-DCs) were generated from femurs and tibiae of C57BL/6 mice, cultured for 7 days in Iscove's medium (Sigma-Aldrich) with J558 supernatant (final GM-CSF concentration of 40 ng/ml), 10% FCS, 100 IU/ml penicillin/streptomycin, 2 mM L-glutamine, 50 μM 2-mercaptoethanol (Sigma-Aldrich) and split every 3-4 days. At day 7, BM-DCs were infected with the isolated bacterial strains at multiplicity of infection (MOI) of 10 or 50, for 1 h at 37° C. in complete Iscove's medium without antibiotics, onto specific low binding 6 wells plates (Sigma). Cells were then washed with PBS and incubated in complete Iscove's medium supplemented with gentamicin (50 μg/ml) to kill extracellular bacteria. For Burkholderia cepacia, the antibiotic meropenem (2 μg/mL, Astra Zeneca) was required. After 24 h, BM-DCs were cultured together with CD4^+ T cells purified from the spleens of mice that had received 7 days treatment of anti-CTLA4 mAb (i.e 3 anti-CTLA4 mAb injections, as detailed above) in complete RPMI medium. CD4^+ T cells were isolated by depletion of non CD4^+ T cells using a cocktail of biotin-conjugated antibodies against CD8a, CD11b, CD11c, CD19, CD45R (B220), CD49b (DX5), CD105, Anti-MHC-class II, Ter-119 and TCRγ/δ as primary labeling reagent. The cells were then magnetically labeled with Anti-Biotin MicroBeads (Miltenyi Biotec, France). […]

In series [3] the test system is gut microbiome of metastatic melanoma patients. In words: Pyrosequencing of 16S rRNA gene amplicons of patients' feces and clustering into enterotypes A, B, C. It counts as in vivo, human. On the procedure: as §1
GOLD: Prospective immunomonitoring study of patients with metastatic melanoma receiving four injections of Ipilimumab every three weeks. In addition to peripheral blood sampling for memory T cell responses assessment, feces were collected before each Ipilimumab injection. Feces samples were frozen at −80° C. and sent for 16RNA pyrosequencing analysis at GATC Biotech AG (Konstanz, Germany).

In a further series the test system is metastatic melanoma. The conditions noted are these: cited from earlier work; for Durable disease control: after more than 7 years of follow-up, MM.

“Also recorded” adds a separate entry of the source. Like-named read-outs stand apart in the source and are kept apart here.

Protocol for MCA205 sarcoma: Mice were subcutaneously injected into the right flank with 1×10^6 MCA205-0VA or MC38, or with 0.2×10^6 CT26 tumor cell lines. When tumors reached a size of 25 to 40 mm^2 (day 0), mice were injected intraperitoneally (i.p) with 100 μg of anti-CTLA-4 mAb (clone 9D9) or isotype control (clone MPC11). Mice were injected 5 times at 3-day intervals with 9D9, and tumor size was routinely monitored by means of a caliper. In order to evaluate the synergistic effect of vancomycin and anti-CTLA4, a prophylactic setting was established. […] In experiments using anti-IL-12p40 mAb (clone C17.8, 500 μg per mouse) or anti-Ly6G mAb (clone 1A8, 200 μg per mouse), mAbs (or their isotype controls, clone 2A3 in both cases) were injected i.p. every 2 days starting from day 0 until the final anti-CTLA-4 injection. […] All mAbs for in vivo use were obtained from BioXcell (West Lebanon, N.H., USA), using the recommended isotype control mAbs. The inhibitor of iNOS, NG-monomethyl-L-arginine (L-NMMA; Sigma), was administered in PBS daily to mice i.p. at a dose of 2 mg per mouse from the start of anti-CTLA4 treatment.
Mice were treated with antibiotics 2-3 weeks before tumor implantation and continued on antibiotics until the end of the experiment. A mix of ampicillin (1 mg/ml), streptomycin (5 mg/ml), and colistin (1 mg/ml) (Sigma-Aldrich), or vancomycin alone (0.25 mg/ml), or imipenem alone (0.25 mg/ml), or colistin alone (2.103 U/ml) were added in sterile drinking water. Solutions and bottles were changed 2-3 times a week, or daily for experiments with imipenem. Antibiotic activity was confirmed by macroscopic changes observed at the level of caecum (dilatation) and by cultivating the fecal pellets resuspended in BHI+15% glycerol at 0.1 g/ml on blood agar plates for 48 h at 37° C. with 5% CO2 in aerobic or anaerobic conditions.
For inoculation of GF mice or mice treated with broad-spectrum antibiotics, colonization was performed the day following the first anti-CTLA4 injection by oral gavage with 100 μl of suspension containing 1×10^9 bacteria. Efficient colonization was checked by culture of feces 48 h post oral gavage. Bacteroides fragilis, Bacteroides thetaiotaomicron, Bacteroides distasonis, Bacteroides uniformis, Lactobacillus plantarum and Enterococcus hirae were grown on COS agar plates (Biomerieux) for 48 h at 37° C. with 5% CO2 in anaerobic conditions. E. coli and Burkholderia cepacia were grown on COS agar plates for 24 h at 37° C. with 5% CO2 in aerobic conditions. Bacteria were harvested from the agar plates, suspended in sterile PBS, centrifuged and washed once with PBS, then resuspended in sterile PBS at an optical density (600 nm) of 1, which corresponds approximately to 1×10^9 colony-forming units (CFU)/ml. In cases where more than one bacteria was administered, an equal volume of each bacteria suspension was mixed to give a suspension of equal proportion of each type of bacteria, to a total 1×10^9 bacteria/ml. For bacteria reconstitution experiments using mice previously treated with antibiotics, antibiotics treatment was stopped after 2-3 weeks at the first anti-CTLA4 injection, and mice were orally gavaged with 1×10^9 CFU the following day. B. distasonis, B. uniformis, E. hirae, and E. coli isolates used in the experiments were originally isolated from feces or mesenteric lymph nodes of SPF mice treated with anti-CTLA4 and identified as described above. […] LPS-EK and LTA-SA (Invivogen) were administrated by oral gavage, at a dose of 500 μg per mouse.

Regarding `CNC(=N)NCCC[C@H](N)C(=O)O` [L-NMMA, NG-monomethyl-L-arginine], the “9D9 mAb-induced tumoricidal activity upon neutralization of nitric oxide” value in the series on MCA205 sarcoma (2 mg per mouse daily i.p.) is “failed to affect; also recorded: did not alter the antitumor effects”.

On to `CN[C@H](CC(C)C)C(=O)N[C@H]1C(=O)N[C@@H](CC(N)=O)C(=O)N[C@H]2C(=O)N[C@H]3C(=O)N[C@H](C(=O)N[C@H](C(=O)O)c4cc(O)cc(O)c4-c4cc3ccc4O)[C@H](O)c3ccc(c(Cl)c3)Oc3cc2cc(c3O[C@@H]2O[C@H](CO)[C@@H](O)[C@H](O)[C@H]2O[C@H]2C[C@](C)(N)[C@H](O)[C@H](C)O2)Oc2ccc(cc2Cl)[C@H]1O` [Vancomycin, vancomycin], for which the “Histopathological score of colonic mucosae under anti-CTLA4” value in series [1] is “worsened the histopathological score”. Besides, the “Depletion of Bacteroidales and Burkholderiales provoked by CTLA4 blockade” value in series [2] (vancomycin conditioning) is “prevented the depletion; also recorded: prevented the loss”. In addition, the “Representation of Bacteroidales (and Enterobacteriales) at the expense of Clostridiales” value in series [2] (vancomycin in drinking water) is on record as “overrepresentation”. The “Effect of antibiotic regimen on the antitumor effects of 9D9 Ab against MCA205 sarcomas” value with MCA205 sarcoma is “boosted the antitumor effects; also recorded: augments the tumoricidal effects”; with MCA205 sarcoma (listed as vancomycin), “ameliorated the tumor growth reduction”.

With Ipilimumab, the “Decreased commensal-specific Th1 immunity of cancer patients” value in the series on CD4+CD45RO+ T cells (at least in some cases) was “restored”. The “IL-10 production by T cells responding to Bf, B. thetaiotaomicron and to some extent Burkholderia cepacia” value in the series with CD4+CD45RO+ T cells (melanoma patients, after at least 2 injections) is given as “inhibited”. Further, the “IFNγ secretion by T cells responding to Bf and B. thetaiotaomicron” value with CD4+CD45RO+ T cells (melanoma patients, after at least 2 injections, not E. coli, E. faecalis or irrelevant bacteria) is “significantly increased”. For the same compound, in the series with CD4+CD45RO+ T cells (paired analyses on 5-12 patients), the “B. thetaiotaomicron-specific Tr1 immune responses” value is reported as “decrease”. In series [3] (from 26 before therapy), the “Proportion of MM patients falling into cluster C during therapy” value turned out to be 39%. Besides, the “Proportion of MM patients belonging to cluster B during therapy” value in series [3] (from 58 before therapy) stood at 39%. The “Stools of a B pattern that turned into the C favorable enterotype” value in series [3] (paired analysis of feces in 12 cases, 2 out of 7) is listed as 29%. Further, the Durable disease control result is on record as “about 20%” with metastatic melanoma and “approximately 20%” with metastatic melanoma (listed as ipilimumab). Further, the “Immune-related adverse events of grade III-IV” value in the series with metastatic melanoma (human, in vivo, iv) is recorded as 20%. In addition, the “Life threatening immune-related adverse events” value with metastatic melanoma (human, in vivo) is given as under 5%.

Regarding colistin, the “Effect of antibiotic regimen on the antitumor effects of 9D9 Ab against MCA205 sarcomas” value in the series with MCA205 sarcoma was “compromised the antitumor effects”.

Turning to lipoteichoic acid, the “Restoration of 9D9 mAb-induced antitumor effects lost in ACS-treated mice” value in the series on MCA205 sarcoma (oral administration, 500 μg per mouse) is reported as “failed to restore”.

Source of the values: US20190282632A1, “METHODS AND PRODUCTS FOR MODULATING MICROBIOTA COMPOSITION FOR IMPROVING THE EFFICACY OF A CANCER TREATMENT WITH AN IMMUNE CHECKPOINT BLOCKER” (INSTITUT GUSTAVE ROUSSY, priority 2014, published 2019).
